Source: the supplement of paper PMC6965134
± gives the standard deviation of the averaged measurements.

Assay: TIMS collisional cross section (CCS, N2) of the lipid ion; higher = larger ion cross section
Conditions: ionization mode: positive, one isomer drawn

Compound	TIMS collisional cross section (sample type: HeLa) [Å²]	TIMS collisional cross section (sample type: Liver) [Å²]	TIMS collisional cross section (sample type: plasma) [Å²]
CCCCC/C=C\C/C=C\CCCCCCCCCC(=O)OC[C@@H](COC(=O)CCCCCCCCCCCCC)OC(=O)CCCCCCC/C=C\CCCCCCCC [TG 14:0_18:1_20:2] (ion (formula + adduct): [C55H100O6+NH4] 1+)	320	320.5	–
CCCCC/C=C\C/C=C\C/C=C\CCCCC(=O)OC[C@@H](COC(=O)CCCCCCCCCCCCC)OC(=O)CCCCCCC/C=C\C/C=C\CCCCC [TG 14:0_18:2_18:3] (ion (formula + adduct): [C53H92O6+NH4] 1+)	–	308.7	309.2
CC/C=C\C/C=C\C/C=C\C/C=C\C/C=C\CCCC(=O)OC[C@@H](COC(=O)CCCCCCCCCCCCC)OC(=O)CCCCCCC/C=C\C/C=C\CCCCC [TG 14:0_18:2_20:5] (ion (formula + adduct): [C55H92O6+NH4] 1+)	–	312.4	–
CCCC/C=C\CCCCCCCC(=O)OC[C@H](COC(=O)CCCCCCC/C=C\CCCCCC)OC(=O)CCCCCCC/C=C\CCCC [TG 14:1_14:1_16:1] (ion (formula + adduct): [C47H84O6+NH4] 1+)	294.6	291.2	–
CCCC/C=C\CCCCCCCC(=O)OC[C@H](COC(=O)CCCCCCC/C=C\C/C=C\CCCCC)OC(=O)CCCCCCC/C=C\CCCC [TG 14:1_14:1_18:2] (ion (formula + adduct): [C49H86O6+NH4] 1+)	–	296.3	–
CCCC/C=C\CCCCCCCC(=O)OC[C@H](COC(=O)CCCCCCC/C=C\CCCCCC)OC(=O)CCCCCCCCCCCCCC [TG 14:1_15:0_16:1] (ion (formula + adduct): [C48H88O6+NH4] 1+)	300.7	300.3	300.5
CCCC/C=C\CCCCCCCC(=O)OC[C@H](COC(=O)CCCCCCC/C=C\CCCCCC)OC(=O)CCCCCCC/C=C\CCCCC [TG 14:1_15:1_16:1] (ion (formula + adduct): [C48H86O6+NH4] 1+)	298.2	296	–
CCCC/C=C\CCCCCCCC(=O)OC[C@H](COC(=O)CCCCCCC/C=C\CCCCCC)OC(=O)CCCCCCCCCCCCCCC [TG 14:1_16:0_16:1] (ion (formula + adduct): [C49H90O6+NH4] 1+)	303.9 ± 0.85	302.9	303.9 ± 0.28
CCCC/C=C\CCCCCCCC(=O)OC[C@H](COC(=O)CCCCCCC/C=C\CCCCCC)OC(=O)CCCCCCC/C=C\CCCCCC [TG 14:1_16:1_16:1] (ion (formula + adduct): [C49H88O6+NH4] 1+)	301.5	301.9	–
CCCC/C=C\CCCCCCCC(=O)OC[C@H](COC(=O)CCCCCCC/C=C\CCCCCCC)OC(=O)CCCCCCC/C=C\CCCCCC [TG 14:1_16:1_17:1] (ion (formula + adduct): [C50H90O6+NH4] 1+)	–	305.4	–
CCCC/C=C\CCCCCCCC(=O)OC[C@H](COC(=O)CCCCCCCCCCCCCCCCC)OC(=O)CCCCCCC/C=C\CCCCCC [TG 14:1_16:1_18:0] (ion (formula + adduct): [C51H94O6+NH4] 1+)	309.6	–	–
CCCC/C=C\CCCCCCCC(=O)OC[C@H](COC(=O)CCCCCCC/C=C\CCCCCCCC)OC(=O)CCCCCCC/C=C\CCCCCC [TG 14:1_16:1_18:1] (ion (formula + adduct): [C51H92O6+NH4] 1+)	307.85 ± 1.2	307.7	307
CCCC/C=C\CCCCCCCC(=O)OC[C@H](COC(=O)CCCCCCC/C=C\C/C=C\CCCCC)OC(=O)CCCCCCC/C=C\CCCCCC [TG 14:1_16:1_18:2] (ion (formula + adduct): [C51H90O6+NH4] 1+)	306.1	304.7	304.5
CCCC/C=C\CCCCCCCC(=O)OC[C@H](COC(=O)CCCCCCC/C=C\C/C=C\CCCCC)OC(=O)CCCCCCC/C=C\CCCCCCC [TG 14:1_17:1_18:2] (ion (formula + adduct): [C52H92O6+NH4] 1+)	–	–	308.6
CCCCCCCCCCCCCCCC(=O)OC[C@@H](COC(=O)CCCCCCCCCCCCCC)OC(=O)CCCCCCCCCCCCCC [TG 15:0_15:0_16:0] (ion (formula + adduct): [C49H94O6+NH4] 1+)	308	–	–
CCCCCC/C=C\CCCCCCCC(=O)OC[C@@H](COC(=O)CCCCCCCCCCCCCC)OC(=O)CCCCCCCCCCCCCC [TG 15:0_15:0_16:1] (ion (formula + adduct): [C49H92O6+NH4] 1+)	305.9	–	–

Compound	TIMS collisional cross section (sample type: HeLa) [Å²]	TIMS collisional cross section (sample type: Liver) [Å²]	TIMS collisional cross section (sample type: plasma) [Å²]
CCCCC/C=C\CCCCCCCC(=O)O[C@H](COC(=O)CCCCCCCCCCCCCC)COC(=O)CCCCCCCCCCCCCCC [TG 15:0_15:1_16:0] (ion (formula + adduct): [C49H92O6+NH4] 1+)	–	305.9	–
CCCCCCCCCCCCCCCC(=O)OC[C@@H](COC(=O)CCCCCCCCCCCCCC)OC(=O)CCCCCCCCCCCCCCC [TG 15:0_16:0_16:0] (ion (formula + adduct): [C50H96O6+NH4] 1+)	311.5	–	311.3 ± 0.14
CCCCCC/C=C\CCCCCCCC(=O)OC[C@@H](COC(=O)CCCCCCCCCCCCCC)OC(=O)CCCCCCCCCCCCCCC [TG 15:0_16:0_16:1] (ion (formula + adduct): [C50H94O6+NH4] 1+)	–	309.02 ± 0.29	309.2
CCCCCCCCCCCCCCCCC(=O)OC[C@@H](COC(=O)CCCCCCCCCCCCCC)OC(=O)CCCCCCCCCCCCCCC [TG 15:0_16:0_17:0] (ion (formula + adduct): [C51H98O6+NH4] 1+)	314.3	–	314.6 ± 0.22
CCCCCCC/C=C\CCCCCCCC(=O)OC[C@@H](COC(=O)CCCCCCCCCCCCCC)OC(=O)CCCCCCCCCCCCCCC [TG 15:0_16:0_17:1] (ion (formula + adduct): [C51H96O6+NH4] 1+)	–	311.4	–
CCCCCCCCCCCCCCCCCC(=O)OC[C@@H](COC(=O)CCCCCCCCCCCCCC)OC(=O)CCCCCCCCCCCCCCC [TG 15:0_16:0_18:0] (ion (formula + adduct): [C52H100O6+NH4] 1+)	–	–	317.33 ± 0.31
CCCCCCCC/C=C\CCCCCCCC(=O)OC[C@@H](COC(=O)CCCCCCCCCCCCCC)OC(=O)CCCCCCCCCCCCCCC [TG 15:0_16:0_18:1] (ion (formula + adduct): [C52H98O6+NH4] 1+)	315.2	–	315.47 ± 0.058
CCCCC/C=C\C/C=C\CCCCCCCC(=O)OC[C@@H](COC(=O)CCCCCCCCCCCCCC)OC(=O)CCCCCCCCCCCCCCC [TG 15:0_16:0_18:2] (ion (formula + adduct): [C52H96O6+NH4] 1+)	–	312.6	–
CCCCCCCCCCCCCCCCCCCCCC(=O)OC[C@@H](COC(=O)CCCCCCCCCCCCCC)OC(=O)CCCCCCCCCCCCCCC [TG 15:0_16:0_22:0] (ion (formula + adduct): [C56H108O6+NH4] 1+)	–	–	328.3
CCCCCC/C=C\CCCCCCCC(=O)O[C@H](COC(=O)CCCCCCCCCCCCCC)COC(=O)CCCCCCCCCCCCCCCC [TG 15:0_16:1_17:0] (ion (formula + adduct): [C51H96O6+NH4] 1+)	–	312.5	–
CCCCCC/C=C\CCCCCCCC(=O)O[C@@H](COC(=O)CCCCCCC/C=C\CCCCCCCC)COC(=O)CCCCCCCCCCCCCC [TG 15:0_16:1_18:1] (ion (formula + adduct): [C52H96O6+NH4] 1+)	312.9	–	312.8 ± 0.14
CCCCC/C=C\C/C=C\CCCCCCCC(=O)OC[C@@H](COC(=O)CCCCCCCCCCCCCC)OC(=O)CCCCCCC/C=C\CCCCCC [TG 15:0_16:1_18:2] (ion (formula + adduct): [C52H94O6+NH4] 1+)	–	310.7 ± 0.99	310.4
CCCCCCC/C=C\CCCCCCCC(=O)O[C@@H](COC(=O)CCCCCCC/C=C\CCCCCCCC)COC(=O)CCCCCCCCCCCCCC [TG 15:0_17:1_18:1] (ion (formula + adduct): [C53H98O6+NH4] 1+)	315.9	–	–
CCCCC/C=C\C/C=C\CCCCCCCC(=O)OC[C@@H](COC(=O)CCCCCCCCCCCCCC)OC(=O)CCCCCCC/C=C\CCCCCCCC [TG 15:0_18:1_18:2] (ion (formula + adduct): [C54H98O6+NH4] 1+)	–	–	316.6
CCCCC/C=C\C/C=C\C/C=C\CCCCC(=O)OC[C@@H](COC(=O)CCCCCCCCCCCCCC)OC(=O)CCCCCCC/C=C\C/C=C\CCCCC [TG 15:0_18:2_18:3] (ion (formula + adduct): [C54H94O6+NH4] 1+)	–	312.7	312.8
CCCCC/C=C\CCCCCCCC(=O)OC[C@H](COC(=O)CCCCCCCCCCCCCCC)OC(=O)CCCCCCCCCCCCCCC [TG 15:1_16:0_16:0] (ion (formula + adduct): [C50H94O6+NH4] 1+)	–	309.7	–
